Patent publication US20240116882A1, “NOVEL BENZOTRIAZOLE DERIVATIVE HAVING INHIBITORY ACTIVITY AGAINST ECTONUCLEOTIDE PYROPHOSPHATASE-PHOSPHODIESTERASE, AND USE THEREOF” (TXINNO BIOSCIENCE INC., priority 2021, published 2024)
Counter-ions that a name gives are not always drawn.

Target: T1, human recombinant ENPP1 enzymes (Homo sapiens, UniProt P22413)
T1 construct: purchased R & D systems
T1 sequence (P22413 1-925): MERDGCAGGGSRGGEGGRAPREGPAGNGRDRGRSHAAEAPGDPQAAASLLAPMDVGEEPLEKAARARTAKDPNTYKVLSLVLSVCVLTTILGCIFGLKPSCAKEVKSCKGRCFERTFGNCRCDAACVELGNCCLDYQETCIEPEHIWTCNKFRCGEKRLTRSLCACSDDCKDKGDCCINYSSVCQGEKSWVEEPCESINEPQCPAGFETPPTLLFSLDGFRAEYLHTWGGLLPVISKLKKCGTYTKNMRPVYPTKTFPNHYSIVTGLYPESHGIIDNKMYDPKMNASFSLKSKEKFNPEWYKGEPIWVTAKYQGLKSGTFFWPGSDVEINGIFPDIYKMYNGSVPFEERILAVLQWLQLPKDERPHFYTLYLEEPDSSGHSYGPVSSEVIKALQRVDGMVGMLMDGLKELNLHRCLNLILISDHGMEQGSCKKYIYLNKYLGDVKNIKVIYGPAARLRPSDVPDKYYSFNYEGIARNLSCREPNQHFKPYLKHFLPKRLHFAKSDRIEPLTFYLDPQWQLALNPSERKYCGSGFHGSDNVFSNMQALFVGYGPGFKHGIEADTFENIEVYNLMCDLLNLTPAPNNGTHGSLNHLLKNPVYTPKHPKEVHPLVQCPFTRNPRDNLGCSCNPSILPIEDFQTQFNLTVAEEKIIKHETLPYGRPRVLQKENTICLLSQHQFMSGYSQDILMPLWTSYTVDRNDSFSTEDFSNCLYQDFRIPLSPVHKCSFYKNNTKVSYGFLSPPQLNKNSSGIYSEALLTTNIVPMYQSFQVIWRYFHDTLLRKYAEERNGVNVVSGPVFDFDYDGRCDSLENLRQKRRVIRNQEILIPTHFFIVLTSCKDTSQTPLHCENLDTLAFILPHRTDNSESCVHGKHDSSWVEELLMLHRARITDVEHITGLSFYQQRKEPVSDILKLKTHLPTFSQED
Experiment: ENPP1 Enzyme Assay with cGAMP Substrate (AMP-Glo)
Assay type: biochemical
Details: human recombinant ENPP1, cGAMP 5 μM, 37° C. 90 minutes, AMP-Glo luminescence; read-out: Enzymatic activity (IC50)
Method: ENPP1 hydrolyzes nucleotides or nucleotide derivatives to produce nucleoside-5′-monophosphate and pyrophosphate. In addition, ENPP1 hydrolyzes 2′,3′-cGAMP to produce 5′-adenosine monophosphate (AMP) and 5′-guanosine monophosphate (GMP). AMP produced from the reaction is measured using the AMP-Glo® kit (Promega). The AMP-Glo® kit contains two reagents. The first reagent terminates the AMP-producing enzymatic reaction, removes ATP and converts the produced AMP into ADP. The second reagent converts ADP into ATP which is used to generate luminescence in the luciferase reaction. The amount of luminescence measured is proportional to the amount of AMP produced by ENPP1.
The final reaction solution contains 50 mM Tris (pH 8.5) buffer, 250 mM NaCl, 0.5 mM CaCl2), 1 μM ZnCl2, 5% glycerol and 1% DMSO. Serially diluted ENPP1 inhibitors (typically in the range of 10 μM to 0.5 nM) were pre-stored with human recombinant ENPP1 enzymes (R & D systems) at 3 ng/reaction and room temperature (RT) for 5 to 10 minutes. The reaction was initiated by addition of cGAMP (at a final concentration of 5 μM) and reacted at 37° C. for 90 minutes. At the end of the reaction, 10 μl of the AMP-Glo first reagent was added to stop the reaction and the result was stored at room temperature for 1 hour. After storage, 20 μl of an AMP detection solution (a mixture of AMP-Glo II reagent and Kinase-Glo at a ratio of 1:100) was added and stored at room temperature for 1 hour. Luminescence signals were measured using a Victor® plate reader (Perkin Elmer). The maximal activity control (containing enzymes and substrates in the presence of 1% DMSO; MAX) and the minimal activity control (containing substrates and 1% DMSO; MIN) were evaluated simultaneously. In each experiment, serially diluted reference ENPP1 inhibitors were tested as well. IC50, indicating % residual activity versus compound concentration was determined by fitting inhibition curves using the 3-parameter analysis of GraphPad Prism® software. Serially diluted samples of one compound were tested two or more times and an average IC50 of each compound was calculated.

| SMILES | IC50 |
| --- | --- |
| Cc1ccc2c(c1)nnn2-c1ccc(CNS(N)(=O)=O)cc1F [Example 75, N-(3-fluoro-4-(5-methyl-1H-benzo[d][1,2,3]triazol-1-yl)benzyl)sulfamide] | > 10 µM |
| COc1ccc2c(c1)nnn2Cc1ccc(NS(N)(=O)=O)cc1 [Example 104, N-(4-((5-methoxy-1H-benzo[d][1,2,3]triazol-1-yl)methyl)phenyl)sulfamide Hydrochloride] | 1 to 10 µM |
| COc1ccc2c(c1)nnn2-c1cc2c(cc1F)CNCC2 [Example 26, 7-fluoro-6-(5-methoxy-1H-benzo[d][1,2,3]triazol-1-yl)-1,2,3,4-tetrahydroisoquinoline Hydrochloride] | > 10 µM |
| COc1ccc2c(c1)nnn2-c1ccc(CNS(N)(=O)=O)cc1OC [Example 68, N-(3-methoxy-4-(5-methoxy-1H-benzo[d][1,2,3]triazol-1-yl)benzyl)sulfamide] | 1 to 10 µM |
| COc1ccc2c(c1)nnn2-c1ccc(CNC2CC2)cc1 [Example 13, N-(4-(5-methoxy-1H-benzo[d][1,2,3]triazol-1-yl)-benzyl)cyclopropanamine Hydrochloride] | > 10 µM |
| COc1ccc2c(c1)nnn2-c1ccc(C(=O)O)cc1F [Example 116, 3-fluoro-4-(5-methoxy-1H-benzo[d][1,2,3]triazol-1-yl)benzoic Acid] | > 10 µM |
| COc1ccc2c(c1)nnn2-c1ccc2c(c1)CC(NS(N)(=O)=O)C2 (stereo not shown) [Example 95] | < 1 µM |
| COc1cc2nnn(-c3ccc(CNS(N)(=O)=O)cc3F)c2cc1F [Example 93, N-(3-fluoro-4-(6-fluoro-5-methoxy-1H-benzo[d][1,2,3]triazol-1-yl)benzyl)sulfamide] | < 1 µM |
| COc1ccc2c(c1)nnn2-c1ccc(CN(C2CC2)S(N)(=O)=O)cc1 [Example 82, N-cyclopropyl-N-(4-(5-methoxy-1H-benzo[d][1,2,3]triazol-1-yl)benzyl)sulfamide] | < 1 µM |
| COc1ccc2c(c1)nnn2C1CCN(CCS(N)(=O)=O)CC1 [Example 44, 2-(4-(5-methoxy-1H-benzo[d][1,2,3]triazol-1-yl)piperidin-1-yl)ethane-1-sulfonamide] | < 1 µM |
| COc1ccc2c(ccn2-c2ccc(CNS(N)(=O)=O)cc2)c1 [Example 122, N-(4-(5-methoxy-1H-indol-1-yl)benzyl)sulfamide] | > 10 µM |
| NS(=O)(=O)NCc1ccc(-n2nnc3cc(C(F)(F)F)ccc32)c(F)c1 [Example 85] | > 10 µM |
| NCc1ccc(-n2nnc3cc(OC(F)F)ccc32)c(F)c1 [Example 24] | > 10 µM |
| CC(F)(F)c1ccc2c(c1)nnn2-c1ccc(CN)cc1 [Example 21] | > 10 µM |
| COc1ccc2c(c1)nnn2C1CCC(CNS(N)(=O)=O)C1 (stereo not shown) [Example 41, N-((3-(5-methoxy-1H-benzo[d][1,2,3]triazol-1-yl)cyclopentyl)methyl)sulfamide] | < 1 µM |
| COc1ccc2c(c1)nnn2-c1ccc(CNS(N)(=O)=O)s1 [Example 106, N-((5-(5-methoxy-1H-benzo[d][1,2,3]triazol-1-yl)thiophen-2-yl)methyl)sulfamide] | > 10 µM |
| COc1ccc2c(c1)nnn2-c1ccc2c(c1)CN(S(N)(=O)=O)C2 [Example 94, 5-(5-methoxy-1H-benzo[d][1,2,3]triazol-1-yl)isoindoline-2-sulfonamide] | < 1 µM |
| COc1ccc2c(c1)nnn2-c1ccc(CNS(C)(=O)=O)cc1F [Example 112, N-(3-fluoro-4-(5-methoxy-1H-benzo[d][1,2,3]triazol-1-yl)benzyl)methanesulfonamide] | > 10 µM |
| COc1cc2nnn(-c3ccc(CNS(N)(=O)=O)cc3F)c2cc1OC [Example 71, N-(4-(5,6-dimethoxy-1H-benzo[d][1,2,3]triazol-1-yl)-3-fluorobenzyl)sulfamide] | < 1 µM |

| SMILES | IC50 |
| --- | --- |
| COc1ccc2c(c1)nnn2-c1ccc(CNS(N)(=O)=O)cn1 [Example 79, (N-(6-(5-methoxy-1H-benzo[d][1,2,3]triazol-1-yl)pyridin-3-yl)methyl)sulfamide] | > 10 µM |
| NS(=O)(=O)NCc1ccc(-n2nnc3cc(OC(F)(F)F)ccc32)cc1 [Example 89] | > 10 µM |
| COc1cc2nnn(-c3ccc(CN)cc3)c2cc1OC [Example 10, 4-(5,6-dimethoxy-1H-benzo[d][1,2,3]triazol-1-yl)phenyl)methanamine Hydrochloride] | 1 to 10 µM |
| COc1ccc2c(c1)nnn2-c1cccc(CNS(N)(=O)=O)c1 [Example 49, N-(3-(5-methoxy-1H-benzo[d][1,2,3]triazol-1-yl)benzyl)sulfamide] | 1 to 10 µM |
| COc1ccc2c(c1)nnn2-c1ccc(N)cc1 [Example 4, 4-(5-methoxy-1H-benzo[d][1,2,3]triazol-1-yl)aniline Hydrochloride] | 1 to 10 µM |
| COc1ccc2c(c1)nnn2-c1cccc(CCNS(N)(=O)=O)c1 [Example 72, N-(3-(5-methoxy-1H-benzo[d][1,2,3]triazol-1-yl)phenethyl)sulfamide] | < 1 µM |
| COc1ccc2c(c1)nnn2-c1ccc2c(c1)CNCCC2 [Example 27, 8-(5-methoxy-1H-benzo[d][1,2,3]triazol-1-yl)-2,3,4,5-tetrahydro-1H-benzo[c]azepine Hydrochloride] | > 10 µM |
| CCS(=O)(=O)NCc1ccc(-n2nnc3cc(OC)ccc32)c(F)c1 [Example 113, N-(3-fluoro-4-(5-methoxy-1H-benzo[d][1,2,3]triazol-1-yl)benzyl)ethanesulfonamide] | > 10 µM |
| COc1ccc2c(c1)nnn2-c1ccc2c(c1)CN(S(N)(=O)=O)CC2 [Example 97, 7-(5-methoxy-1H-benzo[d][1,2,3]triazol-1-yl)-3,4-dihydroisoquinoline-2(1H)sulfonamide] | < 1 µM |
| COc1ccc2c(c1)nnn2C1CCN(CCS(=O)(=O)F)CC1 [Example 111, 2-(4-(5-methoxy-1H-benzo[d][1,2,3]triazol-1-yl)piperidin-1-yl)ethane-1-sulfonyl Fluoride] | > 10 µM |
| COc1ccc2c(c1)nnn2C12CC(CN)(C1)C2 [Example 30] | > 10 µM |
| COc1cc2nnn(-c3ccc4c(c3)CN(S(N)(=O)=O)C4)c2cc1OC [Example 102, 5-(5,6-dimethoxy-1H-benzo[d][1,2,3]triazol-1-yl)-isoindoline-2-sulfonamide] | < 1 µM |
| COc1cc2nnn(-c3ccc(CNS(N)(=O)=O)cc3)c2cc1C [Example 69, N-(4-(5-methoxy-6-methyl-1H-benzo[d][1,2,3]triazol-1-yl)benzyl)sulfamide] | 1 to 10 µM |
| COc1ccc2c(c1)nnn2-c1ccc(CN(C)S(N)(=O)=O)cc1 [Example 80] | < 1 µM |
| COc1ccc2c(c1)nnn2-c1ccc(CCNS(N)(=O)=O)cc1 [Example 73, N-(4-(5-methoxy-1H-benzo[d][1,2,3]triazol-1-yl)phenethyl)sulfamide Hydrochloride] | < 1 µM |
| COc1ccc2c(c1)nnn2-c1ccc2c(c1)CN(S(N)(=O)=O)CCC2 [Example 98, 8-(5-methoxy-1H-benzo[d][1,2,3]triazol-1-yl)-1,3,4,5-tetrahydro-2H-benzo[c]azepine-2-sulfonamide] | > 10 µM |
| COc1cc2nnn(-c3cc(F)c(CN)cc3F)c2cc1OC [Example 28] | > 10 µM |
| NCc1ccc(-n2nnc3cc(OCF)ccc32)c(F)c1 [Example 23] | > 10 µM |
